Results reported in paper PMC9230201, “Sustained Consumption of a Decaffeinated Green Coffee Nutraceutical Has Limited Effects on Phenolic Metabolism and Bioavailability in Overweight/Obese Subjects” (Nutrients, 2022).

Legend:
[1] = Urinary excretion of phenolic metabolites after intake of the GCPE nutraceutical; settings: for Cumulative urinary excretion, Total 0–24 h / Urinary excretion: urine; for Cumulative urinary excretion, Total 0–24 h: mean ± SEM, n = 9
Method: (§1) Participants attended the Human Nutrition Unit (HNU) at the Institute of Food Science, Technology and Nutrition (ICTAN-CSIC) on two consecutive days at the beginning of the intervention (week 0) and also on two consecutive days at the end of the study, after consuming daily two doses of the GCPE nutraceutical, providing 600 mg/d phenols, during two months (week 8). […] A licensed health care professional placed an intravenous catheter in the subjects′ nondominant arm and collected a fasting blood sample (baseline, 0 h). Then, subjects drank the soluble GCPE nutraceutical dissolved in 200 mL of water. […] On the sampling days, volunteers remained at the HNU, where a (poly)phenol-free diet was provided. Half an hour after consuming the nutraceutical, volunteers ate a breakfast consisting of ham, cheese, white bread, and a yogurt. Lunch (paella, bread, and yogurt) and an afternoon snack (muffin and yogurt) were eaten 5 and 9 h, respectively, after consuming the nutraceutical. Water and isotonic beverages were freely available. […] The same protocol was followed during visits at the end of the 8-week intervention. On each occasion, two days before each visit to the HNU, subjects consumed a low (poly)phenol diet free of foods containing hydroxycinnamates such as coffee, herbal teas, red wine, artichokes, whole grain cereals, vegetables, fruits and fruit juices, and dried fruits. Only banana, watermelon, cantaloupes, and potatoes were allowed.
(§2) Blood samples were immediately centrifuged (10 min, 3000 rpm, 4 °C) to obtain plasma. […] All biological samples were stored at −80 °C until analysis.
(§3) To extract plasma metabolites, 10 µL of 50% (v/v) aqueous formic acid, and 900 µL cold acetonitrile containing 50 µL of 10% (w/v) ascorbic acid were added to 400 µL defrosted plasma. Samples were vortexed and centrifuged (14,000 rpm, 10 min, 4 °C), repeating the extraction and combining the two supernatants, which were reduced to dryness under nitrogen [13]. Dried samples were resuspended in 150 µL of 0.1% aqueous formic acid (containing 10% acetonitrile acidified with 0.1% formic acid), centrifuged (15 min, 14,000 rpm, 4 °C), and the supernatant collected. Urine samples were diluted 1:1 with Milli-Q water and centrifuged (14,000 rpm, 20 min, 4 °C) prior to analysis. Phosphate-buffered saline (3 mL) was added to a representative 300 mg sample of thawed feces, homogenized in an ultrasound bath during 10 min, centrifuged (14,000 rpm, 20 min, 4 °C), and the supernatants collected.
(§4) Mobile phase A was 0.1% formic acid in Milli-Q water, and mobile phase B was acetonitrile containing 0.1% formic acid at a 0.3 mL/min flow rate. […] Metabolites were identified based on their retention time using authentic standards when possible. […] Urine concentration of excreted metabolites was normalized to the total volume excreted in each studied interval.
(§5) Plasma (30 µL), urine (5 µL) and fecal extracts (5 µL) were filtered through 0.45 µm
(§6) cellulose-acetate membrane filters and injected into an Agilent 1200 series LC system
(§7) ESI-Jet Stream Technology (Agilent Technologies). A reverse-phase Ascentis Express
(§8) C18 (15 cm x 3 mm, 2.7 µm) column (Sigma-Aldrich Quimica, Madrid), preceded by a
(§9) phase A was 0.1% formic acid in Milli-Q water, and mobile phase B was acetonitrile
(§10) containing 0.1% formic acid at a 0.3 mL/min flow rate. The gradient started with 10% B
(§11) at 0 min, 30% B at 10 min, 40% B at 15 min, reaching 50% B at 20 min. The starting
(§12) gradient was then re-established in 2 min and maintained for 8 min to re-equilibrate the

[2] = Plasma pharmacokinetics of phenolic metabolites after intake of the GCPE nutraceutical (LC-MS-QToF); settings: for AUC(0-t) / Tmax: 300 mg hydroxycinnamic acids; for AUC(0-t): AUC0–24h; for Tmax: Tmax (h) or Range; for Cmax: mean ± SEM, n = 9
Method: Participants attended the Human Nutrition Unit (HNU) at the Institute of Food Science, Technology and Nutrition (ICTAN-CSIC) on two consecutive days at the beginning of the intervention (week 0) and also on two consecutive days at the end of the study, after consuming daily two doses of the GCPE nutraceutical, providing 600 mg/d phenols, during two months (week 8). On each occasion, on the first visit day (Figure 1), subjects arrived at the HNU after an overnight (12 h) fast and provided a urine sample. A licensed health care professional placed an intravenous catheter in the subjects′ nondominant arm and collected a fasting blood sample (baseline, 0 h). Then, subjects drank the soluble GCPE nutraceutical dissolved in 200 mL of water. Subsequently, blood samples were collected in EDTA-coated tubes at 0.5, 1, 1.5, 2, 3, 4, 6, 8, 10, and 11 h. On the sampling days, volunteers remained at the HNU, where a (poly)phenol-free diet was provided. Half an hour after consuming the nutraceutical, volunteers ate a breakfast consisting of ham, cheese, white bread, and a yogurt. Lunch (paella, bread, and yogurt) and an afternoon snack (muffin and yogurt) were eaten 5 and 9 h, respectively, after consuming the nutraceutical. Water and isotonic beverages were freely available. Volunteers were instructed to eat a (poly)phenol-free dinner that night and to attend the HNU on the next day after a 12 h fast. Then, a final blood sample was obtained from the antecubital vein 24 h after consuming the nutraceutical. The same protocol was followed during visits at the end of the 8-week intervention. On each occasion, two days before each visit to the HNU, subjects consumed a low (poly)phenol diet free of foods containing hydroxycinnamates such as coffee, herbal teas, red wine, artichokes, whole grain cereals, vegetables, fruits and fruit juices, and dried fruits. Only banana, watermelon, cantaloupes, and potatoes were allowed.
as §2
To extract plasma metabolites, 10 µL of 50% (v/v) aqueous formic acid, and 900 µL cold acetonitrile containing 50 µL of 10% (w/v) ascorbic acid were added to 400 µL defrosted plasma. Samples were vortexed and centrifuged (14,000 rpm, 10 min, 4 °C), repeating the extraction and combining the two supernatants, which were reduced to dryness under nitrogen [13]. Dried samples were resuspended in 150 µL of 0.1% aqueous formic acid (containing 10% acetonitrile acidified with 0.1% formic acid), centrifuged (15 min, 14,000 rpm, 4 °C), and the supernatant collected.
A reverse-phase Ascentis Express C18 (15 cm × 3 mm, 2.7 µm) column (Sigma-Aldrich Quimica, Madrid, Spain), preceded by a Supelco 55215-U guard column (3 mm × 5 mm, 2.7 µm), was used for separation. Mobile phase A was 0.1% formic acid in Milli-Q water, and mobile phase B was acetonitrile containing 0.1% formic acid at a 0.3 mL/min flow rate. […] Metabolites were identified based on their retention time using authentic standards when possible.

[3] = Fecal excretion of phenolic metabolites after intake of the GCPE nutraceutical; settings: feces
Method: as §1, §2, §3, §4, §5, §6, §7, §8, §9, §10, §11, §12

[4] = human, oral, week 0, first peak where biphasic
[5] = human, oral, week 8, first peak where biphasic
[6] = human, oral, 300 mg, Cmax, week 0, GCPE nutraceutical with 300 mg hydroxycinnamic acids
[7] = human, oral, 300 mg, Cmax, week 8, GCPE nutraceutical with 300 mg hydroxycinnamic acids
[8] = week 0, GCPE nutraceutical with 300 mg hydroxycinnamic acids
[9] = week 0, first peak where biphasic
[10] = week 8, GCPE nutraceutical with 300 mg hydroxycinnamic acids
[11] = week 8, first peak where biphasic
[12] = week 8, listed as 3′-hydroxyphenylacetic acid

SMILES | Cumulative urinary excretion, Total 0–24 h ([1]; week 0) | Cumulative urinary excretion, Total 0–24 h ([1]; week 8) | Amount excreted in urine, 0- 3 h ([1]; week 0, interval 0–3 h) | Amount excreted in urine, 3-6 h ([1]; week 0, interval 3–6 h) | Amount excreted in urine, 6-9 h ([1]; week 0, interval 6–9 h) | Amount excreted in urine, 9-11 h ([1]; week 0, interval 9–11 h) | Amount excreted in urine, 11-24 h ([1]; week 0, interval 11–24 h) | Amount excreted in urine, 0- 3 h ([1]; week 8, interval 0–3 h) | Amount excreted in urine, 3-6 h ([1]; week 8, interval 3–6 h) | Amount excreted in urine, 6-9 h ([1]; week 8, interval 6–9 h) | Amount excreted in urine, 9-11 h ([1]; week 8, interval 9–11 h) | Amount excreted in urine, 11-24 h ([1]; week 8, interval 11–24 h) | Amount of fecal metabolite excreted at 0 h ([3]; week 0, mean ± SEM, n = 9) | Amount of fecal metabolite excreted at 0 h ([3]; week 8) | Amount of fecal metabolite excreted at 24 h ([3]; week 0) | Amount of fecal metabolite excreted at 24 h ([3]; week 8) | AUC0–24h ([2]; week 0) | Cmax [2, 8] | Tmax (h) or Range [2, 9] | AUC0–24h ([2]; week 8) | other results
O=C(O)c1cccc(O)c1 [3-Hydroxybenzoic acid] | 0.91 ± 0.07 µmol | 1.0 ± 0.1 µmol | 0.09 ± 0.02 µmol | 0.05 ± 0.01 µmol | 0.08 ± 0.02 µmol | 0.064 ± 0.009 µmol | 0.26 ± 0.02 µmol | 0.1 ± 0.01 µmol | 0.06 ± 0.01 µmol | 0.11 ± 0.02 µmol | 0.07 ± 0.02 µmol | 0.19 ± 0.04 µmol | 0.03 ± 0.02 µmol/g | 0.020 ± 0.008 µmol/g | 0.03 ± 0.01 µmol/g | 0.020 ± 0.007 µmol/g | – | – | – | – | AUC(0-t) ([2]; human, oral, week 0): 0.7 ± 0.3 µM·h; AUC(0-t) ([2]; human, oral, week 8): 0.8 ± 0.3 µM·h; Tmax [2, 4]: 8 ± 1 h; Tmax [2, 5]: 4 ± 1 h; Cmax [2, 6]: 80 ± 20 nM; Cmax [2, 7]: 100 ± 30 nM
O=C(O)Cc1cccc(O)c1 [3′-Hydroxyphenylacetic acid] | 12 ± 3 µmol | 9 ± 2 µmol | 1.6 ± 0.5 µmol | 1 ± 0.2 µmol | 0.8 ± 0.2 µmol | 0.53 ± 0.09 µmol | 2.5 ± 0.7 µmol | 1 ± 0.2 µmol | 0.7 ± 0.2 µmol | 0.7 ± 0.1 µmol | 0.6 ± 0.2 µmol | 1.8 ± 0.6 µmol | 0.31 ± 0.09 µmol/g | 0.18 ± 0.08 µmol/g | 0.21 ± 0.08 µmol/g | 0.11 ± 0.04 µmol/g | 2.6 ± 0.9 µM/min | 200 ± 70 nM | 8 ± 2 h | 1.6 ± 0.6 µM/min | Amount excreted in urine, TOTAL ([1]; week 0, Table S5 total): 12 ± 3 µmol; Cmax [2, 10]: 150 ± 50 nM; Tmax (h) or Range [2, 11]: 5 ± 1 h; Amount of fecal metabolite excreted at 0 h ([3]; week 0, mean ± SEM, n = 9, listed as 3′-hydroxyphenylacetic acid): 0.31 µmol/g; Amount of fecal metabolite excreted at 0 h [3, 12]: 0.18 µmol/g; Amount of fecal metabolite excreted at 24 h ([3]; week 0, listed as 3′-hydroxyphenylacetic acid): 0.21 µmol/g; Amount of fecal metabolite excreted at 24 h [3, 12]: 0.11 µmol/g
O=C(O)c1ccc(O)cc1 [4-Hydroxybenzoic acid] | 1.3 ± 0.2 µmol | 1.01 ± 0.09 µmol | 0.3 ± 0.2 µmol | 0.11 ± 0.02 µmol | 0.1 ± 0.02 µmol | 0.09 ± 0.01 µmol | 0.29 ± 0.04 µmol | 0.14 ± 0.02 µmol | 0.1 ± 0.01 µmol | 0.09 ± 0.02 µmol | 0.08 ± 0.02 µmol | 0.26 ± 0.03 µmol | 0.004 ± 0.004 µmol/g | 0.006 ± 0.004 µmol/g | 0.0006 ± 0.0004 µmol/g | 0.01 ± 0.01 µmol/g | – | – | – | – | Urinary excretion ([1]; week 0): 1.3 µmol/24 h; Urinary excretion ([1]; week 8): 1.01 µmol/24 h; AUC(0-t) ([2]; human, oral, week 0): 0.9 ± 0.2 µM·h; AUC(0-t) ([2]; human, oral, week 8): 0.5 ± 0.2 µM·h; Tmax [2, 4]: 7 ± 2 h; Tmax [2, 5]: 5 ± 3 h; Cmax [2, 6]: 90 ± 10 nM; Cmax [2, 7]: 80 ± 10 nM
COc1cc(CC(=O)O)ccc1O [4′-Hydroxy-3′-methoxyphenylacetic acid] | 13.2 ± 0.9 µmol | 12 ± 1 µmol | 1.3 ± 0.2 µmol | 0.9 ± 0.2 µmol | 0.9 ± 0.2 µmol | 0.7 ± 0.1 µmol | 3.6 ± 0.3 µmol | 1.5 ± 0.2 µmol | 0.8 ± 0.1 µmol | 1 ± 0.2 µmol | 0.68 ± 0.15 µmol | 2.9 ± 0.7 µmol | 0.007 ± 0.005 µmol/g | 0.0006 ± 0.0006 µmol/g | 0.02 ± 0.01 µmol/g | 0.003 ± 0.003 µmol/g | 1.4 ± 0.9 µM/min | 140 ± 60 nM | 7 ± 4 h | 1.5 ± 0.8 µM/min | Cmax [2, 10]: 120 ± 50 nM; Tmax (h) or Range [2, 11]: 4 ± 3 h
O=C(O)CCc1ccc(O)cc1 [DHCoA, 3-(4′-Hydroxyphenyl)propanoic acid] | 4 ± 1 µmol | 6 ± 2 µmol | 0.16 ± 0.04 µmol | 0.09 ± 0.02 µmol | 0.5 ± 0.2 µmol | 0.6 ± 0.2 µmol | 1.4 ± 0.4 µmol | 0.4 ± 0.2 µmol | 0.3 ± 0.1 µmol | 0.9 ± 0.3 µmol | 0.8 ± 0.3 µmol | 1 ± 0.2 µmol | 0.005 ± 0.003 µmol/g | 0.006 ± 0.006 µmol/g | 0.005 ± 0.005 µmol/g | 0.014 ± 0.005 µmol/g | – | – | – | – | Urinary excretion ([1]; week 0): 4 µmol/24 h; Urinary excretion ([1]; week 8): 6 µmol/24 h

Second part, led by results:

Cumulative urinary excretion, Total 0–24 h ([1]; week 0) | Cumulative urinary excretion, Total 0–24 h ([1]; week 8) | Amount excreted in urine, 0- 3 h ([1]; week 0, interval 0–3 h) | Amount excreted in urine, 3-6 h ([1]; week 0, interval 3–6 h) | Amount excreted in urine, 6-9 h ([1]; week 0, interval 6–9 h) | Amount excreted in urine, 9-11 h ([1]; week 0, interval 9–11 h) | Amount excreted in urine, 11-24 h ([1]; week 0, interval 11–24 h) | Amount excreted in urine, 0- 3 h ([1]; week 8, interval 0–3 h) | Amount excreted in urine, 3-6 h ([1]; week 8, interval 3–6 h) | Amount excreted in urine, 6-9 h ([1]; week 8, interval 6–9 h) | Amount excreted in urine, 9-11 h ([1]; week 8, interval 9–11 h) | Amount excreted in urine, 11-24 h ([1]; week 8, interval 11–24 h) | Amount of fecal metabolite excreted at 0 h ([3]; week 0, mean ± SEM, n = 9) | Amount of fecal metabolite excreted at 0 h ([3]; week 8) | Amount of fecal metabolite excreted at 24 h ([3]; week 0) | Amount of fecal metabolite excreted at 24 h ([3]; week 8) | SMILES | AUC0–24h ([2]; week 0) | Cmax [2, 8] | Tmax (h) or Range [2, 9] | AUC0–24h ([2]; week 8) | other results
0.4 ± 0.2 µmol | 0.4 ± 0.1 µmol | 0.2 ± 0.1 µmol | 0.15 ± 0.05 µmol | 0.02 ± 0.01 µmol | 0.003 ± 0.002 µmol | – | 0.21 ± 0.08 µmol | 0.13 ± 0.03 µmol | 0.03 ± 0.01 µmol | – | 0.02 ± 0.02 µmol | – | 0.001 ± 0.001 µmol/g | – | 0.0004 ± 0.0004 µmol/g | COc1cc(/C=C/C(=O)OC2[C@H](O)CC(O)(C(=O)O)C[C@H]2O)ccc1O (stereo partly drawn) [4-Feruloylquinic acid] | 0.06 ± 0.01 µM/min | 29 ± 4 nM | 0.9 ± 0.1 h | 0.07 ± 0.01 µM/min | Cmax [2, 10]: 31 ± 4 nM; Tmax (h) or Range [2, 11]: 0.9 ± 0.1 h
– | – | – | – | – | – | – | – | – | – | – | – | 0.06 ± 0.03 µmol/g | 0.006 ± 0.006 µmol/g | – | – | COc1cc(C(=O)O)ccc1O [4-Hydroxy-3-methoxybenzoic acid] | – | – | – | – | AUC(0-t) ([2]; human, oral, week 0): 9 ± 2 µM·h; AUC(0-t) ([2]; human, oral, week 8): 14 ± 4 µM·h; Tmax [2, 4]: 7 ± 3 h; Tmax [2, 5]: 7 ± 2 h; Cmax [2, 6]: 1100 ± 200 nM; Cmax [2, 7]: 1600 ± 400 nM
0.03 ± 0.02 µmol | 0.03 ± 0.01 µmol | 0.012 ± 0.006 µmol | 0.005 ± 0.003 µmol | 0.003 ± 0.002 µmol | 0.003 ± 0.002 µmol | 0.01 ± 0.004 µmol | 0.004 ± 0.003 µmol | 0.002 ± 0.001 µmol | 0.002 ± 0.002 µmol | 0.002 ± 0.002 µmol | 0.015 ± 0.008 µmol | 0.04 ± 0.01 µmol/g | 0.06 ± 0.02 µmol/g | 0.05 ± 0.01 µmol/g | 0.08 ± 0.02 µmol/g | O=C(CCc1ccc(O)c(O)c1)OC1CC(O)(C(=O)O)CC(O)C1O (stereo not drawn) [5-Dihydrocaffeoylquinic acid] | – | – | – | – | –
1.5 ± 0.2 µmol | 1.5 ± 0.2 µmol | 0.8 ± 0.2 µmol | 0.5 ± 0.1 µmol | 0.13 ± 0.04 µmol | 0.03 ± 0.01 µmol | 0.09 ± 0.01 µmol | 0.8 ± 0.1 µmol | 0.39 ± 0.07 µmol | 0.2 ± 0.04 µmol | 0.05 ± 0.03 µmol | 0.08 ± 0.02 µmol | 0.0009 ± 0.0007 µmol/g | 0.002 ± 0.002 µmol/g | 0.002 ± 0.001 µmol/g | 0.0003 ± 0.0003 µmol/g | COc1cc(/C=C/C(=O)O[C@@H]2C[C@@](O)(C(=O)O)C[C@@H](O)[C@@H]2O)ccc1O [5-Feruloylquinic acid] | 0.09 ± 0.02 µM/min | 32 ± 4 nM | 0.9 ± 0.1 h | 0.08 ± 0.02 µM/min | Cmax [2, 10]: 34 ± 5 nM; Tmax (h) or Range [2, 11]: 0.9 ± 0.1 h
0.42 ± 0.06 µmol | 0.45 ± 0.09 µmol | 0.13 ± 0.03 µmol | 0.08 ± 0.02 µmol | 0.08 ± 0.03 µmol | 0.023 ± 0.008 µmol | 0.12 ± 0.02 µmol | 0.12 ± 0.03 µmol | 0.06 ± 0.01 µmol | 0.11 ± 0.02 µmol | 0.06 ± 0.03 µmol | 0.11 ± 0.03 µmol | – | 0.003 ± 0.002 µmol/g | 0.0003 ± 0.0003 µmol/g | 0.003 ± 0.003 µmol/g | O=C(O)/C=C/c1ccc(O)c(O)c1 [CA, 3′,4′-Dihydroxycinnamic acid] | – | – | – | – | –
